Reference: US20240398828A1, “HETERO-ATOM CONTAINING COMPOUNDS AND USES THEREOF” (Kumquat Biosciences Inc., priority 2021, published 2024)

Experiments:
[1] = target: T1, PTPN2 (i.e., TC-PTP) (Homo sapiens, UniProt P17706); experiment: Phosphatase activity assay (DiFMUP substrate), PTPN2; assay type: biochemical; details: compounds binned ≤1 uM or >1 uM
T1 sequence (P17706 1-415): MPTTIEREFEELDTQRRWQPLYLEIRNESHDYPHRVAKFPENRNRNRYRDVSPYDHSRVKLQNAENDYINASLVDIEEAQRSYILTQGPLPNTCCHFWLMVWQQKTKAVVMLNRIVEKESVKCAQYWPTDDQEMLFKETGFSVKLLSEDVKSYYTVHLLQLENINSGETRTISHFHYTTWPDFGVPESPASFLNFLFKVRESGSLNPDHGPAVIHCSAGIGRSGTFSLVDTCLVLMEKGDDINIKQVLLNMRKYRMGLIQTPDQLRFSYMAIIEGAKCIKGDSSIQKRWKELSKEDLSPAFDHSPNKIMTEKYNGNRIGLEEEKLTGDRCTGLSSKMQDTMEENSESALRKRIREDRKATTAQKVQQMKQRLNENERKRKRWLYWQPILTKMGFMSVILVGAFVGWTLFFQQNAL
Procedure, shortened: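 First, serially diluted inhibitor is mixed about 2 minutes with enzyme in pH 7.5 HEPES/NaCl/EDTA/DTT/Tween-20 buffer. Next, DiFMUP is added at the enzyme's Km, approximately 45 μM for PTPN2. Finally, DiFMU appearance is read continuously at room temperature and rates are fitted for IC50.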

[2] = target: T2, PTPN1 (i.e., PTP1B) (Homo sapiens, UniProt P18031); experiment: Phosphatase activity assay (DiFMUP substrate), PTP1B; assay type: biochemical; details: compounds binned ≤1 uM or >1 uM
T2 sequence (P18031 1-435): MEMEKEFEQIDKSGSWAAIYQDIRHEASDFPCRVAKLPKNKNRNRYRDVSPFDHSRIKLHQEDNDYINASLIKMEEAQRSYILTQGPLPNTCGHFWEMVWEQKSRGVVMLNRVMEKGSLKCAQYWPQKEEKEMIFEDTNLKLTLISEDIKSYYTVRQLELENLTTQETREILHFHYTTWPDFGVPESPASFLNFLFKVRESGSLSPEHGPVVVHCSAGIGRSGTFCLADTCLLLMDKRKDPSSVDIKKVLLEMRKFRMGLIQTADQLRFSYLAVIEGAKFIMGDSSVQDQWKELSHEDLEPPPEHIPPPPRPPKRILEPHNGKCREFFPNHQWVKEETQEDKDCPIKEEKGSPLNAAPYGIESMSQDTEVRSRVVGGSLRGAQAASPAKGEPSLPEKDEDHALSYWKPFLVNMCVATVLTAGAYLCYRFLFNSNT
Procedure, shortened: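 RT, HEPES pH 7.5 buffer with DTT/Tween-20. 10-point inhibitor series premixed ~2 min with enzyme (PTPN2 0.025 ng/ul). Start with DiFMUP at enzyme Km (~45 μM for PTPN2). Read DiFMU ex360/em450 continuously 15–30 min; initial rate vs concentration, 4-parameter fit → IC50.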

Row | Compound | IC50 [1] [µM] | IC50 [2] [µM]
1 | O=C1C=C(c2c(O)ccc(-c3cn(C4CC4)cn3)c2F)S(=O)(=O)N1 [Compound 244, 5-(3-(1-cyclopropyl-1H-imidazol-4-yl)-2-fluoro-6-hydroxyphenyl)isothiazol-3(2H)-one 1,1-dioxide] | ≤ 1 | ≤ 1
2 | O=C1CN(c2c(O)ccc(-c3cnc(NS(=O)(=O)C4CC4)nc3)c2F)S(=O)(=O)N1 [Compound 234, N-(5-(3-(1,1-dioxido-4-oxo-1,2,5-thiadiazolidin-2-yl)-2-fluoro-4-hydroxyphenyl)pyrimidin-2-yl)cyclopropanesulfonamide] | ≤ 1 | ≤ 1
3 | COc1cc(-c2ccc(O)c(N3CC(=O)NS3(=O)=O)c2F)[nH]n1 [Compound 428, 5-(2-fluoro-6-hydroxy-3-(3-methoxy-1H-pyrazol-5-yl)phenyl)-1,2,5-thiadiazolidin-3-one 1,1-dioxide] | ≤ 1 | ≤ 1
4 | O=C1CN(c2c(O)ccc(-c3cc(C(F)(F)F)n[nH]3)c2F)S(=O)(=O)N1 [Compound 247, 5-(2-fluoro-6-hydroxy-3-(3-(trifluoromethyl)-1H-pyrazol-5-yl)phenyl)-1,2,5-thiadiazolidin-3-one 1,1-dioxide] | ≤ 1 | ≤ 1
5 | CC(C)CCN1CCC=C(c2ccc(O)c(N3CC(=O)NS3(=O)=O)c2F)C1 [Compound 210, 5-(2-fluoro-6-hydroxy-3-(1-isopentyl-1,2,5,6-tetrahydropyridin-3-yl)phenyl)-1,2,5-thiadiazolidin-3-one 1,1-dioxide] | ≤ 1 | ≤ 1
6 | O=C1CN(c2c(O)ccc(-c3cnn(CC4CC5CCC(C4)N5C(=O)C4CC4)c3)c2F)S(=O)(=O)N1 (stereo not drawn) [Compound 295, 5-(3-(1-((8-(cyclopropanecarbonyl)-8-azabicyclo[3.2.1]octan-3-yl)methyl)-1H-pyrazol-4-yl)-2-fluoro-6-hydroxyphenyl)-1,2,5-thiadiazolidin-3-one 1,1-dioxide] | ≤ 1 | ≤ 1
7 | CCCN1CCCC(c2ccc(O)c(N3CC(=O)NS3(=O)=O)c2F)C1 (stereo not drawn) [Compound 276, 5-(2-fluoro-6-hydroxy-3-(1-propylpiperidin-3-yl)phenyl)-1,2,5-thiadiazolidin-3-one 1,1-dioxide] | > 1 | ≤ 1
8 | CC(O)c1cc(-c2ccc(O)c(N3CC(=O)NS3(=O)=O)c2F)[nH]n1 (stereo not drawn) [Compound 462, 5-(2-fluoro-6-hydroxy-3-(3-(1-hydroxyethyl)-1H-pyrazol-5-yl)phenyl)-1,2,5-thiadiazolidin-3-one 1,1-dioxide] | ≤ 1 | ≤ 1
9 | O=C1CN(c2c(O)ccc(-c3cc(C4CC4)n(CC4CCNC4)n3)c2F)S(=O)(=O)N1 (stereo not drawn) [Compound 329, 5-(3-(5-cyclopropyl-1-(pyrrolidin-3-ylmethyl)-1H-pyrazol-3-yl)-2-fluoro-6-hydroxyphenyl)-1,2,5-thiadiazolidin-3-one 1,1-dioxide] | ≤ 1 | ≤ 1
10 | O=C1CN(c2c(O)ccc(C3CNC(CO)C3)c2F)S(=O)(=O)N1 (stereo not drawn) [Compound 327, 5-(2-fluoro-6-hydroxy-3-(5-(hydroxymethyl)pyrrolidin-3-yl)phenyl)-1,2,5-thiadiazolidin-3-one 1,1-dioxide] | ≤ 1 | ≤ 1
11 | O=C1CN(c2c(O)ccc(-c3cc(C#CC4CCCCC4)n[nH]3)c2F)S(=O)(=O)N1 [Compound 253, 5-(3-(3-(cyclohexylethynyl)-1H-pyrazol-5-yl)-2-fluoro-6-hydroxyphenyl)-1,2,5-thiadiazolidin-3-one 1,1-dioxide] | ≤ 1 | ≤ 1
12 | O=C1CN(c2c(O)ccc(C3=CCN(C4CC4)CC3)c2F)S(=O)(=O)N1 [Compound 316, 5-(3-(1-cyclopropyl-1,2,3,6-tetrahydropyridin-4-yl)-2-fluoro-6-hydroxyphenyl)-1,2,5-thiadiazolidin-3-one 1,1-dioxide] | ≤ 1 | ≤ 1

Other lines, results leading:

Row | IC50 [1] [µM] | IC50 [2] [µM] | Compound
13 | ≤ 1 | ≤ 1 | O=C1CN(c2c(O)ccc(-c3cnn(Cc4cc(F)cc(F)c4)c3)c2F)S(=O)(=O)N1 [Compound 113, 5-(3-(1-(3,5-difluorobenzyl)-1H-pyrazol-4-yl)-2-fluoro-6-hydroxyphenyl)-1,2,5-thiadiazolidin-3-one 1,1-dioxide]
14 | ≤ 1 | ≤ 1 | O=C1CN(c2c(O)ccc(-c3cc[nH]c3)c2F)S(=O)(=O)N1 [Compound 129, 5-(2-fluoro-6-hydroxy-3-(1H-pyrrol-3-yl)phenyl)-1,2,5-thiadiazolidin-3-one 1,1-dioxide]
15 | ≤ 1 | ≤ 1 | O=C1CN(c2c(O)ccc(-c3cc(-c4ccccc4)n[nH]3)c2F)S(=O)(=O)N1 [Compound 124, 5-(2-fluoro-6-hydroxy-3-(3-phenyl-1H-pyrazol-5-yl)phenyl)-1,2,5-thiadiazolidin-3-one 1,1-dioxide]
16 | > 1 | > 1 | Cc1n[nH]c(C)c1-c1ccc(O)c(N2CC(=O)NS2(=O)=O)c1F [Compound 164, 5-(3-(3,5-dimethyl-1H-pyrazol-4-yl)-2-fluoro-6-hydroxyphenyl)-1,2,5-thiadiazolidin-3-one 1,1-dioxide]
17 | ≤ 1 | ≤ 1 | O=C1CN(c2c(O)ccc(-c3c[nH]nc3F)c2F)S(=O)(=O)N1 [Compound 507, 5-(2-fluoro-3-(3-fluoro-1H-pyrazol-4-yl)-6-hydroxyphenyl)-1,2,5-thiadiazolidin-3-one 1,1-dioxide]
18 | ≤ 1 | ≤ 1 | O=C1CN(c2c(O)ccc(-c3cnc(C4CC4)o3)c2F)S(=O)(=O)N1 [Compound 249, 5-(3-(2-cyclopropyloxazol-5-yl)-2-fluoro-6-hydroxyphenyl)-1,2,5-thiadiazolidin-3-one 1,1-dioxide]
19 | ≤ 1 | ≤ 1 | O=C1CN(c2c(O)ccc(-c3cnn(Cc4ccc(Cl)cc4)c3)c2F)S(=O)(=O)N1 [Compound 189, 5-(3-(1-(4-chlorobenzyl)-1H-pyrazol-4-yl)-2-fluoro-6-hydroxyphenyl)-1,2,5-thiadiazolidin-3-one 1,1-dioxide]
20 | ≤ 1 | ≤ 1 | Cn1cc(-c2ccc(O)c(N3CC(=O)NS3(=O)=O)c2Cl)cn1 [Compound 311, 5-(2-chloro-6-hydroxy-3-(1-methyl-1H-pyrazol-4-yl)phenyl)-1,2,5-thiadiazolidin-3-one 1,1-dioxide]
21 | ≤ 1 | ≤ 1 | Cc1ccc(-c2ccc(O)c(N3CC(=O)NS3(=O)=O)c2F)o1 [Compound 126, 5-(2-fluoro-6-hydroxy-3-(5-methylfuran-2-yl)phenyl)-1,2,5-thiadiazolidin-3-one 1,1-dioxide]
22 | ≤ 1 | ≤ 1 | O=C1CN(c2c(O)ccc(-c3cnn(C(=O)NC4CC4)c3)c2F)S(=O)(=O)N1 [Compound 514, N-cyclopropyl-4-(3-(1,1-dioxido-4-oxo-1,2,5-thiadiazolidin-2-yl)-2-fluoro-4-hydroxyphenyl)-1H-pyrazole-1-carboxamide]
23 | ≤ 1 | ≤ 1 | O=C1CN(c2c(O)ccc(-c3ccc(NC(=O)C4CC4(F)F)cc3)c2F)S(=O)(=O)N1 (stereo not drawn) [Compound 403, N-(3′-(1,1-dioxido-4-oxo-1,2,5-thiadiazolidin-2-yl)-2′-fluoro-4′-hydroxy-[1,1′-biphenyl]-4-yl)-2,2-difluorocyclopropane-1-carboxamide]
24 | ≤ 1 | ≤ 1 | CC(F)(F)n1cc(-c2ccc(O)c(N3CC(=O)NS3(=O)=O)c2F)cn1 [Compound 516, 5-(3-(1-(1,1-difluoroethyl)-1H-pyrazol-4-yl)-2-fluoro-6-hydroxyphenyl)-1,2,5-thiadiazolidin-3-one 1,1-dioxide]
25 | ≤ 1 | ≤ 1 | O=C1CN(c2c(O)ccc(-c3cnn(Cc4ccncc4)c3)c2F)S(=O)(=O)N1 [Compound 174, 5-(2-fluoro-6-hydroxy-3-(1-(pyridin-4-ylmethyl)-1H-pyrazol-4-yl)phenyl)-1,2,5-thiadiazolidin-3-one 1,1-dioxide]
26 | ≤ 1 | ≤ 1 | O=C1CN(c2c(O)ccc(-c3cnn(CC4CCCCC4)c3)c2F)S(=O)(=O)N1 [Compound 179, 5-(3-(1-(cyclohexylmethyl)-1H-pyrazol-4-yl)-2-fluoro-6-hydroxyphenyl)-1,2,5-thiadiazolidin-3-one 1,1-dioxide]
27 | > 1 | > 1 | Cn1ccc(-c2ccc(F)c(N3CC(=O)NS3(=O)=O)c2F)c1 [Compound 116, 5-(2,6-difluoro-3-(1-methyl-1H-pyrrol-3-yl)phenyl)-1,2,5-thiadiazolidin-3-one 1,1-dioxide]
